Results: patent US8362017B2, “C-kit modulators and methods of use” (Exelixis, Inc., priority 2003, dated 2013)

Target: c-Kit kinase (Homo sapiens, UniProt P10721)
Test: c-Kit biochemical activity assay (AlphaScreen)
Conditions: biotinylated poly(Glu, Tyr) substrate, 1 hr at ambient temperature
Description: Kinase activity and compound inhibition are investigated using one or more of the three assay formats described below. The ATP concentrations for each assay are selected to be close to the Michaelis-Menten constant (KM) for each individual kinase. Dose-response experiments are performed at 10 different inhibitor concentrations in a 384-well plate format. The data are fitted to four-parameter equation (2) below; where Y is the observed signal, X is the inhibitor concentration, Min is the background signal in the absence of enzyme (0% enzyme activity), Max is the signal in the absence of inhibitor (100% enzyme activity), IC50 is the inhibitor concentration at 50% enzyme inhibition and H represents the empirical Hill's slope to measure the cooperativity. Typically H is close to unity. Y=Min+(Max−Min)/(1+(X/IC50)^H) Equation (2) c-Kit Assay
c-Kit biochemical activity was assessed using AlphaScreen™ (Perldn Elmer) technology, described above. Test compounds, ATP, biotinylated poly(Glu, Tyr) and c-Kit kinase were combined in a volume of 20 μL in a 384-well white, medium binding microtiter plate (Greiner). Reaction mixtures were incubated for 1 hr at ambient temperature. Reactions were quenched by addition of 10 μL of 15-30 mg/mL AlphaScreen bead suspension containing 75 mM Hepes, pH 7.4, 300 mM NaCl, 120 mM EDTA, 0.3% BSA and 0.03% Tween-20. After 16 hr incubation at ambient temperature plates were read using an AlphaQuest reader (Perkin Elmer).

c-Kit kinase, sequence (P10721 26-976): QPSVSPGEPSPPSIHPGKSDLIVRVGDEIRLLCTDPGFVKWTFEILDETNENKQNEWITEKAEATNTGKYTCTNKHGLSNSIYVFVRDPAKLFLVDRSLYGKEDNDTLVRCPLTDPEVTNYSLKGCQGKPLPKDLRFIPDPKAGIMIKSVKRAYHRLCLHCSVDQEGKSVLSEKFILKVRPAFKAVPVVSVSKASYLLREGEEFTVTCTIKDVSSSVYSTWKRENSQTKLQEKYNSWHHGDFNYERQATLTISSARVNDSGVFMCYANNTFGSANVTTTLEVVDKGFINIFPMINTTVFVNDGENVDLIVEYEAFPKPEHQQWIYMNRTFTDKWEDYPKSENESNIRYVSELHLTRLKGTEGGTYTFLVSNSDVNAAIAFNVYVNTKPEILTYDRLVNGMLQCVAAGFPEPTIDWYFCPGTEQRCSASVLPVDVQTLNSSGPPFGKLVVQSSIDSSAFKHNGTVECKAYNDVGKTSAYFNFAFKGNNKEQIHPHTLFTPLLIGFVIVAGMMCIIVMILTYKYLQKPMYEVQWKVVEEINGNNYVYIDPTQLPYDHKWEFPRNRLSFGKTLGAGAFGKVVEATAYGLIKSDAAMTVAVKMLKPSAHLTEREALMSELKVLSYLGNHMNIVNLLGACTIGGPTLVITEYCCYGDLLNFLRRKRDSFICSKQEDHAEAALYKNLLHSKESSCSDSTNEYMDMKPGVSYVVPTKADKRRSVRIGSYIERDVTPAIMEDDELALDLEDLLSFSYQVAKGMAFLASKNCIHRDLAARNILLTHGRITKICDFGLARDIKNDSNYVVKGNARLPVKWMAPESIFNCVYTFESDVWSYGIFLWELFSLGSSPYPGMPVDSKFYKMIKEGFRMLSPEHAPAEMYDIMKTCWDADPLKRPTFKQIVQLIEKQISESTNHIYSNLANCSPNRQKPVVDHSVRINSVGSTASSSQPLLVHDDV

| Compound | IC50 [nM] |
| --- | --- |
| Cc1nnnn1-c1cccc(OCC(=O)Nc2ccc(Cl)c(C(F)(F)F)c2)c1 [Example 5, N-[4-chloro-3-(trifluoromethyl)phenyl]-2-{[3-(5-methyl-1H-tetrazol-1-yl)phenyl]oxy}acetamide] | 500 to 5000 |
| O=C(COc1ccc(-c2cncnc2)cc1)Nc1ccc(Cl)c(C(F)(F)F)c1 [Example 7, N-[4-chloro-3-(trifluoromethyl)phenyl]-2-[(4-pyrimidin-5-ylphenyl)oxy]acetamide] | 50 to 500 |
| O=C(NCc1cccc(-c2ccc3nccnc3c2)c1)Nc1ccc(Cl)c(C(F)(F)F)c1 [Example 11, 1-(4-Chloro-3-trifluoromethyl-phenyl)-3-(3-quinoxalin-6-yl-benzyl)urea] | 50 to 500 |
| O=C(NC(=O)c1cccc(-n2cnnn2)c1)Nc1ccc(Cl)c(C(F)(F)F)c1 [Example 13, 1-(4-chloro-3-trifluoromethyl-phenyl)-3-(3-tetrazol-1-yl-benzoyl)-urea] | 500 to 5000 |
| Cc1ccc(-n2cnnn2)cc1OCC(=O)Nc1ccc(Cl)c(C(F)(F)F)c1 [Example 18, N-[4-chloro-3-(trifluoromethyl)phenyl]-2-{[2-methyl-5-(1H-tetrazol-1-yl)phenyl]oxy}acetamide] | > 5000 |
| COC(=O)c1cn(-c2cccc(OCC(=O)Nc3ccc(Cl)c(C(F)(F)F)c3)c2)nn1 [Example 29, methyl 1-{3-[(2-{[4-chloro-3-(trifluoromethyl)phenyl]amino}-2-oxoethyl)oxy]phenyl}-1H-1,2,3-triazole-4-carboxylate] | 500 to 5000 |
| COc1ccc(Cl)cc1NC(=O)OCc1cccc(-c2cccnc2)c1 [Example 234, (3-pyridin-3-ylphenyl)methyl [5-chloro-2-(methyloxy)phenyl]carbamate] | 500 to 5000 |
| O=C(Nc1ccc(Cl)c(C(F)(F)F)c1)OCc1ccc(-n2cnnn2)cc1 [Example 235, [4-(1H-tetrazol-1-yl)phenyl]methyl [4-chloro-3-(trifluoromethyl)phenyl]carbamate] | 500 to 5000 |
| COc1ccc(Cl)cc1NC(=O)OCc1cccc(-c2cncnc2)c1 [Example 236, (3-pyrimidin-5-ylphenyl)methyl [5-chloro-2-(methyloxy)phenyl]carbamate] | 500 to 5000 |
| Cc1ccc(NC(=O)OCc2ccc(-c3cncnc3)cc2)cc1C [Example 237, (4-pyrimidin-5-ylphenyl)methyl (3,4-dimethylphenyl)carbamate] | 500 to 5000 |
| Cc1ccc(NC(=O)OCc2cccc(-c3cccnc3)c2)cc1C [Example 238, (3-pyridin-3-ylphenyl)methyl (3,4-dimethylphenyl)carbamate] | 50 to 500 |
| CC(C)(C)OC(=O)N1CCCC(NC(=O)c2nc(-c3cccc(CNC(=O)Nc4ccc(Cl)c(C(F)(F)F)c4)c3)cnc2N)C1 (centres unmarked) [Example 239, 1,1-dimethylethyl 3-({[3-amino-6-(3-{[({[4-chloro-3-(trifluoromethyl)phenyl]amino}carbonyl)amino]methyl}phenyl)pyrazin-2-yl]carbonyl}amino)piperidine-1-carboxylate] | 500 to 5000 |
| CC(C)(C)OC(=O)N1CCCC(NC(=O)c2nc(-c3ccc(CNC(=O)Nc4ccc(Cl)c(C(F)(F)F)c4)cc3)cnc2N)C1 (centres unmarked) [Example 240, 1,1-dimethylethyl 3-({[3-amino-6-(4-{[({[4-chloro-3-(trifluoromethyl)phenyl]amino}carbonyl)amino]methyl}phenyl)pyrazin-2-yl]carbonyl}amino)piperidine-1-carboxylate] | 500 to 5000 |
| Nc1ncc(-c2cccc(CNC(=O)Nc3ccc(Cl)c(C(F)(F)F)c3)c2)nc1C(=O)NC1CCCNC1 (centres unmarked) [Example 241, 3-amino-6-(3-{[({[4-chloro-3-(trifluoromethyl)phenyl]amino}carbonyl)amino]methyl}phenyl)-N-piperidin-3-ylpyrazine-2-carboxamide] | 50 to 500 |
| Nc1ncc(-c2ccc(CNC(=O)Nc3ccc(Cl)c(C(F)(F)F)c3)cc2)nc1C(=O)NC1CCCNC1 (centres unmarked) [Example 242, 3-amino-6-(4-{[({[4-chloro-3-(trifluoromethyl)phenyl]amino}carbonyl)amino]methyl}phenyl)-N-piperidin-3-ylpyrazine-2-carboxamide] | 50 to 500 |
| CC(C)(C)OC(=O)N1CCN(C(=O)c2nc(-c3cccc(CNC(=O)Nc4ccc(Cl)c(C(F)(F)F)c4)c3)cnc2N)CC1 [Example 243, 1,1-dimethylethyl 4-{[3-amino-6-(3-{[({[4-chloro-3-(trifluoromethyl)phenyl]amino}carbonyl)amino]methyl}phenyl)pyrazin-2-yl]carbonyl}piperazine-1-carboxylate] | 500 to 5000 |
| CC(C)(C)OC(=O)N1CCN(C(=O)c2nc(-c3ccc(CNC(=O)Nc4ccc(Cl)c(C(F)(F)F)c4)cc3)cnc2N)CC1 [Example 244, 1,1-dimethylethyl 4-{[3-amino-6-(4-{[({[4-chloro-3-(trifluoromethyl)phenyl]amino}carbonyl)amino]methyl}phenyl)pyrazin-2-yl]carbonyl}piperazine-1-carboxylate] | 500 to 5000 |
| Nc1ncc(-c2cccc(CNC(=O)Nc3ccc(Cl)c(C(F)(F)F)c3)c2)nc1C(=O)N1CCNCC1 [Example 245, N-({3-[5-amino-6-(piperazin-1-ylcarbonyl)pyrazin-2-yl]phenyl}methyl)-N′-[4-chloro-3-(trifluoromethyl)phenyl]urea] | 500 to 5000 |
| Nc1ncc(-c2ccc(CNC(=O)Nc3ccc(Cl)c(C(F)(F)F)c3)cc2)nc1C(=O)N1CCNCC1 [Example 246, N-({4-[5-amino-6-(piperazin-1-ylcarbonyl)pyrazin-2-yl]phenyl}methyl)-N′-[4-chloro-3-(trifluoromethyl)phenyl]urea] | 500 to 5000 |
| O=C(NCc1cccc(-c2cn[nH]c2)c1)Nc1ccc(Cl)c(C(F)(F)F)c1 [Example 247, N-[4-chloro-3-(trifluoromethyl)phenyl]-N′-{[3-(1H-pyrazol-4-yl)phenyl]methyl}urea] | 50 to 500 |
| O=C(NCc1ccc(-c2cn[nH]c2)cc1)Nc1ccc(Cl)c(C(F)(F)F)c1 [Example 248, N-[4-chloro-3-(trifluoromethyl)phenyl]-N′-{[4-(1H-pyrazol-4-yl)phenyl]methyl}urea] | 500 to 5000 |
| O=C(Nc1ccc(Cl)c(C(F)(F)F)c1)OCc1cccc(-c2cnc(N3CCNCC3)nc2)c1 [Example 249, [3-(2-piperazin-1-ylpyrimidin-5-yl)phenyl]methyl [4-chloro-3-(trifluoromethyl)phenyl]carbamate] | 500 to 5000 |
| O=C(Nc1ccc(Cl)c(C(F)(F)F)c1)OCc1ccc(-c2cnc(N3CCNCC3)nc2)cc1 [Example 250, [4-(2-piperazin-1-ylpyrimidin-5-yl)phenyl]methyl [4-chloro-3-(trifluoromethyl)phenyl]carbamate] | 500 to 5000 |
| O=C(NCc1cccc(-c2cccnc2Cl)c1)Nc1ccc(Cl)c(C(F)(F)F)c1 [Example 251, N-{[3-(2-chloropyridin-3-yl)phenyl]methyl}-N′-[4-chloro-3-(trifluoromethyl)phenyl]urea] | 50 to 500 |
| O=C(NCc1ccc(-c2cccnc2Cl)cc1)Nc1ccc(Cl)c(C(F)(F)F)c1 [Example 252, N-{[4-(2-chloropyridin-3-yl)phenyl]methyl}-N′-[4-chloro-3-(trifluoromethyl)phenyl]urea] | 500 to 5000 |
| O=C(NCc1cccc(-c2cccnc2F)c1)Nc1ccc(Cl)c(C(F)(F)F)c1 [Example 253, N-[4-chloro-3-(trifluoromethyl)phenyl]-N′-{[3-(2-fluoropyridin-3-yl)phenyl]methyl}urea] | 500 to 5000 |
